Laboratory results: US9062124B2, “GIP-based mixed agonists for treatment of metabolic disorders and obesity” (priority 2008, dated 2015)
Where a SMILES comes first, the peptide text is derived from it. Bridges are numbered along the chain shown (N, C = ends). Where no end group is shown, it is not given here. [ ]: non-standard residue; d: D form. PEG 40 kDa = PEG (40 kDa) covalently attached to Cys; Aib = CC(C)(N)C(=O)O

Tests used:
Type in all cases: cell-based
GLP-1 receptor = biological target: T1, GLP-1 receptor (Homo sapiens, UniProt P43220); assay: cAMP synthesis functional assay (firefly luciferase reporter in HEK293 cells), GLP-1 receptor; details: for GLP-1 Receptor relative activity: Table 1, relative to the native hormone of the indicated receptor
T1 construct: expressed in transfected cells; host or cells: HEK293

GIP receptor = biological target: T2, GIP receptor (Homo sapiens, UniProt P48546); assay: cAMP synthesis functional assay (firefly luciferase reporter in HEK293 cells), GIP receptor; details: Table 1; relative to the native hormone of the indicated receptor
T2 construct: expressed in transfected cells; host or cells: HEK293
T2 sequence (P48546 22-466): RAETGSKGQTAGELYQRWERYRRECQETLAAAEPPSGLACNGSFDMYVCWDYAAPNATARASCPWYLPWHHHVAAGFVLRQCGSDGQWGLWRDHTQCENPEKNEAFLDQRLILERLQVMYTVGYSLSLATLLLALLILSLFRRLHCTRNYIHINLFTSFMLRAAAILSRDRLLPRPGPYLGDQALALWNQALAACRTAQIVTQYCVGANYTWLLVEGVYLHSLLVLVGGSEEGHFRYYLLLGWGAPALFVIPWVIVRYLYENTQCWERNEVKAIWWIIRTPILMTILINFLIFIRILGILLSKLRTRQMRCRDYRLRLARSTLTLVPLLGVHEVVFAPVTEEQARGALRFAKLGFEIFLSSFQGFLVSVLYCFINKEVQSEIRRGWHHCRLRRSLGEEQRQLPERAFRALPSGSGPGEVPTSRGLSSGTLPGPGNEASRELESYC

glucagon receptor = biological target: T3, glucagon receptor (Homo sapiens, UniProt P47871); assay: cAMP synthesis functional assay (firefly luciferase reporter in HEK293 cells), glucagon receptor; details: for Glucagon Receptor relative activity: relative to the native hormone of the indicated receptor
T3 construct: expressed in transfected cells; host or cells: HEK293
T3 sequence (P47871 26-477): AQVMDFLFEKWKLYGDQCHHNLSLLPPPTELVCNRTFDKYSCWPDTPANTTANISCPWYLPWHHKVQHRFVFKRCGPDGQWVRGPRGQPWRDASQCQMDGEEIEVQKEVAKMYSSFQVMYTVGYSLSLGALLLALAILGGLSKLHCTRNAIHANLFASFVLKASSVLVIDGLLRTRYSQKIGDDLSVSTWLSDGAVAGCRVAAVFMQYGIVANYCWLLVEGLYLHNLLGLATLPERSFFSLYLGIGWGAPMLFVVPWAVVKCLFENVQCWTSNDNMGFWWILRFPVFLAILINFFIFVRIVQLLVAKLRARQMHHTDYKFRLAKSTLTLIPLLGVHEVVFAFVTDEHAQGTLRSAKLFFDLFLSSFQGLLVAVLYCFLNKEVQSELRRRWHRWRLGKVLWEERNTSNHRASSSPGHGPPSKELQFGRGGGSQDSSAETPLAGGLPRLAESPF

T1 sequence (P43220 24-463, species assumed): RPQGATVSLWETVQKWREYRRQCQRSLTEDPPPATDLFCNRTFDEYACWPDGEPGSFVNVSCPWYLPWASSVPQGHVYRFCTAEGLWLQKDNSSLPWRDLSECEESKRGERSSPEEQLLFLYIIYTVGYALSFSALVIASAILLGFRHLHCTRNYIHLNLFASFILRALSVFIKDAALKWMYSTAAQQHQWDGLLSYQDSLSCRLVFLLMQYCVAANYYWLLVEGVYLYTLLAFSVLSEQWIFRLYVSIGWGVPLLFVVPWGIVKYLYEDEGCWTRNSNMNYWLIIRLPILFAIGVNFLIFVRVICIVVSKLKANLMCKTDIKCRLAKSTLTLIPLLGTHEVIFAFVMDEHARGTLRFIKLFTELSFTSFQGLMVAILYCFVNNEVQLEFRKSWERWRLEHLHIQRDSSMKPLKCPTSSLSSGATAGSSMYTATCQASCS

In the case of `CC[C@H](C)[C@H](NC(=O)[C@H](CO)NC(=O)[C@H](Cc1ccc(O)cc1)NC(=O)[C@H](CC(=O)O)NC(=O)[C@H](CO)NC(=O)[C@@H](NC(=O)[C@H](Cc1ccccc1)NC(=O)[C@@H](NC(=O)CNC(=O)[C@H](CCC(=O)O)NC(=O)[C@H](C)NC(=O)[C@@H](N)Cc1ccc(O)cc1)[C@@H](C)O)[C@@H](C)O)C(=O)N[C@@H](Cc1ccc(O)cc1)C(=O)N[C@@H](CCSC)C(=O)N[C@@H](CC(=O)O)C(=O)N[C@H]1CCC(=O)NCCCC[C@@H](C(=O)N[C@@H](CCC(=O)O)C(=O)N[C@@H](Cc2ccccc2)C(=O)N[C@H](C(=O)N[C@@H](CC(N)=O)C(=O)N[C@@H](Cc2c[nH]c3ccccc23)C(=O)N[C@@H](CC(C)C)C(=O)N[C@@H](CC(C)C)C(=O)N[C@@H](C)C(=O)NCC(=O)NCC(=O)N2CCC[C@H]2C(=O)N[C@@H](CO)C(=O)N[C@@H](CO)C(=O)NCC(=O)N[C@@H](C)C(=O)N2CCC[C@H]2C(=O)N2CCC[C@H]2C(=O)N2CCC[C@H]2C(=O)N[C@@H](CO)C(N)=O)C(C)C)NC(=O)[C@H](C)NC(=O)[C@H](C)NC(=O)[C@H](CCC(N)=O)NC1=O` [mt-142] (H-YAEGTFTSDYSIYMDEQAAKEFVNWLLAGGPSSGAPPPS-NH2; lactam 16-20; N-terminus assumed), the “GLP-1 Receptor relative activity” value (GLP-1 receptor) is reported as 163.41% and the “GIP Receptor relative activity” value (GIP receptor) is reported as 36.36%.

With `CC[C@H](C)[C@H](NC(=O)[C@H](CO)NC(=O)[C@H](Cc1ccc(O)cc1)NC(=O)[C@H](CC(=O)O)NC(=O)[C@H](CO)NC(=O)[C@@H](NC(=O)[C@H](Cc1ccccc1)NC(=O)[C@@H](NC(=O)CNC(=O)[C@H](CCC(=O)O)NC(=O)C(C)(C)NC(=O)[C@@H](N)Cc1ccc(O)cc1)[C@@H](C)O)[C@@H](C)O)C(=O)N[C@@H](Cc1ccc(O)cc1)C(=O)N[C@@H](CC(C)C)C(=O)N[C@@H](CC(=O)O)C(=O)N[C@@H](CCCCN)C(=O)N[C@@H](CCC(N)=O)C(=O)N[C@@H](C)C(=O)N[C@@H](C)C(=O)NC(C)(C)C(=O)N[C@@H](CCC(=O)O)C(=O)N[C@@H](Cc1ccccc1)C(=O)N[C@H](C(=O)N[C@@H](CCCCN)C(=O)N[C@@H](Cc1c[nH]c2ccccc12)C(=O)N[C@@H](CC(C)C)C(=O)N[C@@H](CC(C)C)C(=O)N[C@@H](C)C(=O)NCC(=O)NCC(=O)N1CCC[C@H]1C(=O)N[C@@H](CO)C(=O)N[C@@H](CO)C(=O)NCC(=O)N[C@@H](C)C(=O)N1CCC[C@H]1C(=O)N1CCC[C@H]1C(=O)N1CCC[C@H]1C(=O)N[C@@H](CO)C(N)=O)C(C)C` [mt-268] the EC50 (GLP-1 receptor; GLP-1 Receptor EC50, cAMP luciferase reporter assay as in Example 16) was 0.0155 nM and the EC50 (glucagon receptor; Glucagon Receptor EC50, cAMP luciferase reporter assay as in Example 16) was 6.5 nM.

With “HSQGTFTSDYSKYLDEIHQKEFIAWLLAQ-NH2 [mt-66]” the “GLP-1 Receptor relative activity” value (GLP-1 receptor) was 38.46% and the “Glucagon Receptor relative activity” value (glucagon receptor; Table 1) was 13.00%.

In the case of “HSQGTFTSDYSKYLDKIHQEEFIAWLMNT-NH2 [mt-68]”, the “GLP-1 Receptor relative activity” value (GLP-1 receptor) is reported as 6.10%, the EC50 (glucagon receptor; Glucagon Receptor EC50, nM, Table 1) is reported as 1.97 nM and the “Glucagon Receptor relative activity” value (glucagon receptor; Table 1) is reported as 13.20%.

With “YAEGTFISDYSIAMDKIHQQDFVNWLLAQ-NH2 [mt-106]” the “GLP-1 Receptor relative activity” value (GLP-1 receptor) was 0.02% and the “Glucagon Receptor relative activity” value (glucagon receptor; Table 1) was 0.11%.

In the case of “YAPGTFISDYSIAMDKIHQQDFVCWLLAQKGKKNWLKHNITQ-NH2 [mt-104]”, the “GIP Receptor relative activity” value (GIP receptor) is reported as 0.22%.

“YAPGTFISDYSIAMDKIHQQDFVNWLLAQKGKKNWLKHNITQ-NH2 [mt-101]” was tested, and the “GIP Receptor relative activity” value (GIP receptor) was 0.06%.

With “mt-208: glucagon analog peptide, C-terminal amide (Y[Aib]EGTFTSDYSIYLDEQAAKEFVNWLLAGKGKKNWLKHNITQC(PEG 40 kDa)-NH2; lactam 16-20)” the “GLP-1 Receptor relative activity” value (GLP-1 receptor) was 11.83% and the “GIP Receptor relative activity” value (GIP receptor) was 4.79%.
